Data reported in ChEMBL document CHEMBL4842331, “Targeted Discovery of the Polyene Macrolide Hexacosalactone A from Streptomyces by Reporter-Guided Selection of Fermentation Media” (J Nat Prod, 2021).
Calls of active or inactive are those of the source.

Tests used:
[1] = tested on: Mycolicibacterium smegmatis; assay: Antibacterial activity against Mycobacterium smegmatis mc2 155 assessed as inhibition of bacterial growth at 20 ug/disk by paper disk diffusion method; assay type: functional, organism-based; details: dose 20.0 µg
MDA-MB-231 = assay: Cytotoxicity against human MDA-MB-231 cells assessed as reduction in cell viability by MTT assay; assay type: functional, cell-based
K562 = assay: Cytotoxicity against human K562 cells assessed as reduction in cell viability by MTT assay; assay type: functional, cell-based
Proteus vulgaris = assay: Antibacterial activity against Proteus vulgaris CPCC 160013 assessed as inhibition of bacterial growth by paper disk diffusion method; assay type: functional
Phytophthora capsici = assay: Antifungal activity against Phytophthora capsici assessed as inhibition of fungal growth at 20 ug/disk by paper disk diffusion method; assay type: functional, organism-based; details: dose 20.0 µg
Botryosphaeria dothidea = assay: Antifungal activity against Botryosphaeria dothidea assessed as inhibition of fungal growth at 20 ug/disk by paper disk diffusion method; assay type: functional, organism-based; details: dose 20.0 µg
Valsa ambiens = assay: Antifungal activity against Valsa ambiens assessed as inhibition of fungal growth at 20 ug/disk by paper disk diffusion method; assay type: functional, organism-based; details: Cytospora leucosperma; dose 20.0 µg
Salmonella typhimurium = assay: Antibacterial activity against Salmonella enterica serovar typhimurium UK-1X8956 assessed as inhibition of bacterial growth at 20 ug/disk by paper disk diffusion method; assay type: functional, organism-based; details: Salmonella enterica subsp. enterica serovar Typhimurium, dose 20.0 µg
Alternaria alternata = assay: Antifungal activity against Alternaria alternata assessed as inhibition of fungal growth at 20 ug/disk by paper disk diffusion method; assay type: functional, organism-based; details: dose 20.0 µg
Staphylococcus aureus = assay: Antibacterial activity against Staphylococcus aureus ATCC 25923 assessed as inhibition of bacterial growth by paper disk diffusion method; assay type: functional
NCI-H1299 = assay: Cytotoxicity against human NCI-H1299 cells assessed as reduction in cell viability by MTT assay; assay type: functional, cell-based
Pseudomonas aeruginosa = assay: Antibacterial activity against Pseudomonas aeruginosa PAO1 assessed as inhibition of bacterial growth at 20 ug/disk by paper disk diffusion method; assay type: functional, organism-based; details: dose 20.0 µg
Escherichia coli = assay: Antibacterial activity against Escherichia coli DH5alpha assessed as inhibition of bacterial growth at 20 ug/disk by paper disk diffusion method; assay type: functional, organism-based; details: DH5[alpha], dose 20.0 µg
Rhizoctonia solani = assay: Antifungal activity against Rhizoctonia solani assessed as inhibition of fungal growth at 20 ug/disk by paper disk diffusion method; assay type: functional, organism-based; details: dose 20.0 µg

CO[C@@H]1C[C@H](O)[C@@H](C)[C@H](O)[C@@H](C)C[C@@H](C)C(=O)C(C)[C@H](C(C)C)OC(=O)/C(C)=C/C=C/C(C)=C/C=C/C(C)=C\C[C@H](OC(=O)/C=C/C(=O)NC2=C(O)CCC2=O)[C@@H]1C (some centres undefined)
12.5 µg/mL: MIC (Proteus vulgaris) | MIC (Staphylococcus aureus)
inactive: Activity [1] | Activity (Phytophthora capsici) | Activity (Botryosphaeria dothidea) | Activity (Valsa ambiens) | Activity (Salmonella typhimurium) | Activity (Alternaria alternata) | Activity (Pseudomonas aeruginosa) | Activity (Escherichia coli) | Activity (Rhizoctonia solani)
> 20 µM: IC50 (MDA-MB-231) | IC50 (K562) | IC50 (NCI-H1299)
